How the values were obtained:
[1] = test system: cows diagnosed with metritis; assay: Clinical trials of intrauterine bolus in cows diagnosed with metritis; format: in vivo; settings: single bolus containing 3.5 grams carbamide peroxide inserted in the uterus
Description: Efficacy of carbamide peroxide administration for treating metritis was tested in clinical trials with cows diagnosed with metritis. A single bolus containing 3.5 grams carbamide peroxide was inserted in the uterus of cows showing metritis symptoms such as foul uterine discharge. […] As no antibiotics were required in these cases, no milk had to be discarded. Because no milk was discarded, full financial benefit to the farmer was received for selling more milk than would have occurred if milk had to be discarded due to the presence of antibiotics. […] This indicates the carbamide peroxide administration is safe for use for the long term health of the cow and helps reduce subsequent reproduction failures.

[2] = test system: postpartum cows with retained placenta; assay: Clinical trials of intrauterine bolus in cows having retained placenta; format: in vivo; settings: single bolus containing 3.5 grams carbamide peroxide inserted in the uterus
Description: Efficacy of carbamide peroxide administration in treating retained placenta was tested in clinical trials with cows having retained placenta. A single bolus containing 3.5 grams carbamide peroxide was inserted in the uterus of postpartum cows with retained placenta.

[3] = test system: metritis-causing organisms; assay: In vitro killing of bacteria in uterine discharge from a cow with confirmed metritis; format: cell-based
Description: In vitro testing: One-ml aliquots of uterine discharge from a cow with confirmed metritis were collected and diluted with 1 ml of water. The aliquots were incubated for 30 minutes at 37° C. either in the presence of 7.0% carbamide peroxide (test) or in the absence of carbamide peroxide (control). Bacteria from each treatment were washed and centrifuged, reconstituted in media, and plated on suitable culture media plates. The plates were incubated for three days. […] A similar experiment was conducted using urea in place of carbamide peroxide. The concentration of urea used was 11.3%. This is the equivalent amount of urea found in 4 urea boluses per 16 ounces of water, which is recommended for in vivo treatment using commercially available urea boluses.

[4] = test system: cow diagnosed with severe metritis and vaginitis; assay: Uterine flush (wash format) in a cow with severe metritis and vaginitis; format: in vivo; settings: two boluses comprising 3.5 g carbamide peroxide dissolved in 1 quart of water, uterus flushed; cow 5 days after calving
Description: Efficacy of carbamide peroxide administration in a wash format was tested with a cow diagnosed with severe metritis and vaginitis. A cow that had calved 5 days previously presented a foul smelling uterine discharge. Upon clinical examination, it was discovered that remnants of the placenta were still in the uterus and that the animal was off feed. Antibiotics were not preferred for treatment, as sale of milk from the cow was very important. (Antibiotic residue in milk is not permitted if sale of milk is to occur.) Two boluses comprising 3.5 g carbamide peroxide were dissolved in 1 quart of water, and the uterus of the cow was flushed out with the flush. Within 24-48 hours, the uterine discharge had cleared, the cow was on feed again, and placental remnants were gone. The animal was able to be milked easier than prior to treatment, and the cow was returned to normal service in good health. As no antibiotics were used, the milk was not required to be discarded, and the owner was able to make financial gain from the sale of the milk.

Structure (SMILES) | feed intake during the treatment [1] | need for follow-up with antibiotics [1] | subsequent conception and calving (long-term safety) [1] | uterine discharge (metritis symptom) [1] | foul uterine discharge after treatment [2] | shedding of retained placenta [2] | bacteria colonies on culture plates after treatment ([3]; 7.0% carbamide peroxide, 30 minutes at 37° C., plates incubated three days, control plates had hundreds of colonies) | time until uterine discharge had cleared, cow on feed again, placental remnants gone [4] [h] | bacteria colonies on culture plates after treatment ([3]; 11.3% urea in place of carbamide peroxide, similar experiment)
NC(N)=O.OO [carbamide peroxide] | did not go off feed | No follow-up with antibiotics were required | subsequently conceived safely and had healthy calves | improved and reduced quickly | no foul uterine discharge | The next day, the retained placenta was shed naturally | no colonies were found | 24 to 48 | 
NC(N)=O [urea, reference compound] |  |  |  |  |  |  |  |  | several bacterial colonies still being present

From US8865770B2, “Carbamide peroxide treatments for the reproductive tract” (Vets Plus, Inc., priority 2011, dated 2014)
